Test results as given in EP0503537B1, “6,9 Bis(substituted-amino)benzo-[g]isoquinoline-5,10-diones” (THE UNIVERSITY OF VERMONT, priority 1991, dated 1992).
≈ marks a conversion by molar mass, not a printed value. Where “and” joins values, the source holds several entries; their conditions need not be identical. Equal entries are not always repeated. Structures can show the parent of a compound that is named as a salt. Marks after values point to notes of the source that are not given here.

Key:
[1] = system: L1210 Murine leukemia cells; assay: In vitro growth inhibition of L1210 murine leukemia cells (Coulter Counter); type: cell-based; conditions: Mus musculus, 72 hours of continuous exposure
Method: The "in vitro" cytotoxic evaluation was also performed on L 1210 murine leukemia cells using the above mentioned cells maintained in suspension cultures (McCoy's 5A medium supplemented with 10% horse serum, glutamine, penicillin and streptomycin) grown in an humidified environment of 10% carbon dioxide and 90% air at 37°C. The compounds were dissolved in dimethylsulfoxide (DMSO) and added to the suspended cells in appropriate concentrations. After 72 hours of continuous exposure, the cell concentration was counted using a Coulter Counter and growth inhibition calculated using the formula: % growth inhibition = 1 - [cell number treated/cell number DMSO alone] x 100. [formula]
The IC50 was calculated from the growth inhibition data and they are reported in table VII in comparison to the prior art compound 5a (see table I for structure of 5a).
L1210 Murine leukemia cells were routinely maintained in suspension cultures in McCoy's 5A medium supplemented with 10% horse serum glutamine, penicillin and streptomycin and grown in a humidified environment of 10% carbon dioxide and 90% air at 37°C.
To assess the in vitro toxicity, each compound was dissolved in dimethylsulfoxide and added to 1 ml of L1210 cells (10^5 cells/tube) to attain final concentrations of 0.01, 0.1 and 1 µg of drug/ml of culture. After 72 hours of continues exposure to the drug, the cell concentration was determined with a Coulter Counter. Growth inhibition was calculated for each drug using the following formula: % growth inhibition = 1-[cell number treated/cell number DMSO alone] x 100. [formula]
The growth inhibition data was then used to calculate the IC50 value (the calculated drug concentration required to inhibit cell growth by 50% of control.

L1210 murine leukemia [2] = assay: In vivo L1210 murine leukemia (ip/ip, d 1, 5, 9), protocol a, 10^6 cells; set-up: species or system BDF1 mice; conditions: days 1, 5 and 9, ip; for %T/C: mean survival time; for LTS: tumor-free at 60 days
Method: (§1) L 1210 leukemia cells were intraperitoneally (ip) injected in CDFl mice and treatment was initiated approximately 24 hours after tumor transplantation. Dosages of the drugs were administered ip according to preestablished protocols, usually at 4-day intervals. The studies were done over a 60-day period and the date of death for each animal was recorded. The % T/C was determined using the mean survival time (MST) for each group according to the formula % T/C = [(MST treated)/(MST control)] x 100 [formula]
(§2) • a) L1210 murine leukemia cells were maintained in vivo by weekly intraperitoneal (ip) injections of 10^6 cells in BDF1 mice. For test purposes, mice were inoculated i.p. with 10^6 L1210 cells and treatment was initiated 24 hours later. The desired dose of drug was administered on days 1, 5 and 9. Mice were observed daily for signs of toxicity and survival. The date of death was recorded for each animal that died or was sacrificed during the 60-day study. The mean survival time (MST) for each treatment group was calculated and the % T/C was determined using the following formula: % T/C = [(MST treated)/(MST control)] x 100 [formula] The results are reported in table X • b) L1210 murine leukemia cells were maintained in vivo by weekly intraperitoneal (ip) injections of 10^5 cells in DBA2 mice. For test purposes, CDF1 mice were inoculated i.p. with 10^5 L1210 cells and treatment was initiated 24 hours later. The desired dose of drug was administered on days 1, 5 and 9. Mice were observed daily for signs of toxicity and survival. The date of death was recorded for each animal that died or was sacrificed during the 60-day study. The median survival time (MST) for each treatment group was calculated and the % T/C was determined using the following formula: % T/C = [(MST treated)/(MST control)] x 100 [formula]

murine L 1210 leukemia [3] = conditions: in vitro, from J. Med. Chem. (1985), 28, 1124-1126; cited from earlier work
murine L 1210 leukemia [4] = conditions: in vivo, Dose 50 mg/kg; cited from earlier work
[5] = system: human colon adenocarcinoma cell line (Lovo); assay: MTT cytotoxicity assay on human colon adenocarcinoma Lovo cells; type: cell-based; conditions: 144 h, read-out: IC50 µg/ml±S.D. LoVo
Method: (§3) The evaluation of the "in vitro" cytotoxic activity of the compounds of the invention was performed using a human colon adenocarcinoma cell line (Lovo) isolated from a metastatic nodule and a subline with aquired resistance to a number of antitumor agents, among which doxorubicin, VP-16 and vincristine. […] The compounds were tested according to the MTT assay (Mosman, T., "Rapid Colorimetric assay for cellular growth and survival: application to proliferation and cytotoxicity assay", J. Immunol. Methods, (1983), 65, 55-63; Green, L.M., "Rapid colorimetric assay for cell viability; application to the quantitation of cytotoxic and growth inhibitory lymphokines", J. Immunol. Methods, (1984), 70, 257-268) in comparison with mitoxantrone, ametantrone and doxorubicin.
(§4) In vitro biological evaluation: MTT assay on human colon adenocarcinoma Lovo cells.
(§5) The MTT assay was performed according to Mosmann, T., J. Immunol. Methods, (1983), 65, 55-63 and Green, L. M., J. Immunol. Methods, (1984), 70, 257-268.
(§6) Immediately before use, compounds and reference standards are dissolved in proper solvent and subsequently further diluted in complete culture medium. Human colon adenocarcinoma cells Lovo and the subline resistant to doxorubicin (Lovo/DX) (2.5. 10^4 cells/ml) are plated in 96-well plates and preincubated for 24 hours in culture medium. After this time, the cells are exposed to drugs for 144 hours, then the thiazolyl blue tetrazolium bromide solution (MTT solution) is added and the cells are reincubated for 4 hours. The supernatant is removed and 150 µl of dimethylsulfoxide are added to solubilize formazan crystals. The plate is read at 570 nm with microplate reader and the inhibiting concentration of 50% cellular growth (IC50; µg/ml) is calculated.

Lovo/DX = assay: MTT cytotoxicity assay on doxorubicin-resistant subline Lovo/DX; type: cell-based, human
Method: as §3, §4, §5, §6

P388 Murine Leukemia [6] = assay: In vivo P388 murine leukemia (iv/iv, d 1, 4, 7); conditions: for T/C% (range): median survival time; for LTS: tumor free at 60 days
Method: P388 Murine Leukemia cells were maintained in vivo by serial intraperitoneal (i.p.) injections of 10^6 cells in DBA2 mice. For test purposes, CDF1 mice were inoculated intravenously (i.v.) with 10^6 P388 cells and treatment was initiated 24 hr later. The i.v. dose of drug was administered on days 1, 4 and 7. Mice were observed daily for signs of toxicity and survival. The date of death was recorded for each animal that died or was sacrificed during the 60 day study. The median survival time (MST) for each treatment group was calculated and the % T/C was determined using the following formula: % T/C = [(MST treated)/(MST control)] x 100 [formula]

P388 Murine Leukemia [7] = assay: In vivo ascitic P388 murine leukemia (ip/ip, d 1, 5, 9); set-up: species or system CDF1 mice; conditions: for % T/C (range): median survival time; for TOX: toxic deaths/total No. of mice
Method: Treatment was initiated approximately 24 hours after tumor transplantation and dosages of the drug were administered ip (P388 ip/ip) or iv (P388 iv/iv) according to preestablished protocols, usually at 3-day (P388 iv/iv) or 4-day (P388 ip/ip) intervals. The studies were done over a 60-day period and the date of death for each animal was recorded. The % T/C was determined using the mean survival time (MST) for each group according to the formula % T/C = [(MST treated)/(MST control)] x 100 [formula]
P388 Murine Leukemia cells were maintained in vivo by serial intraperitoneal (ip) injections of 10^6 cells in DBA2 mice. For test purposes, CDF1 mice were inoculated i.p. with 10^6 P388 cells and treatment was initiated 24 hours later. The i.p dose of drug was administered on days 1, 5 and 9. Mice were observed daily for signs of toxicity and survival. The date of death was recorded for each animal that died or was sacrificed during the 60-day study. The median survival time (MST) for each treatment group was calculated and the % T/C was determined using the following formula: % T/C = [(MST treated)/(MST control)] x 100 [formula]

L1210 murine leukemia [8] = assay: In vivo ascitic L1210 murine leukemia (ip/ip, d 1, 5, 9), protocol b, 10^5 cells; set-up: species or system CDF1 mice; conditions: for %T/C: median survival time; for TOX: toxic deaths/total No. of mice; for LTS: tumor free at 60 days
Method: as §1, with “Dosages” for “L 1210 leukemia cells were intraperitoneally (ip) injected in CDFl mice and treatment was initiated approximately 24 hours after tumor transplantation. Dosages”
as §2, with “The mean survival time (MST) for each treatment group was calculated and the % T/C was determined using the following formula: % T/C = [(MST treated)/(MST control)] x 100 [formula] The results are reported in table X • b) L1210 murine leukemia cells were maintained in vivo by weekly intraperitoneal (ip) injections of 10^5 cells in DBA2 mice.” left out

In the case of `CN(C)CCNc1ccc(NCCN(C)C)c2c1C(=O)c1cccnc1C2=O` [Compound 5a, 6,9-bis{[2-(dimethylamino)ethyl]amino}benzo[g]quinoline-5,10-dione, reference compound], the IC50 [1] is given as 0.155 µg/mL (≈ 0.406 µM), the “%T/C” value (L1210 murine leukemia [2]; Dose 50 mg/kg) is given as 129% and the ID50 (murine L 1210 leukemia [3]) is given as 0.16 µg/mL (≈ 0.419 µM). The T/C (murine L 1210 leukemia [4]) was 130.
Compound `CN(C)CCNc1ccc(NCCN(C)C)c2c1C(=O)c1ccncc1C2=O` [Compound 10a, 6,9-Bis{[2-(dimethylamino)ethyl]amino}benzo[g]isoquinoline-5,10-dione] has an IC50 [5] of 0.045 µg/mL (≈ 0.118 µM), an IC50 (Lovo/DX; Homo sapiens, LoVo/DX, MTT assay, 144 hrs drug exposure, read-out: IC50 µg/ml±S.D. LoVo/Dx) of 0.085 µg/mL (≈ 0.223 µM) and a R.I. (Lovo/DX; R.I. = (IC50 LoVo/Dx)/(IC50 LoVo)) of 1.9. The “cross resistance with mitoxantrone and ametantrone” value (Lovo/DX; resistant subline Lovo/DX) was “no cross resistance”, the IC50 [1] was 0.006 µg/mL (≈ 0.0157 µM) and the “T/C% (range)” value (P388 Murine Leukemia [6]; 18 mg/kg/day iv days 1,4,7) was 172% and 156%. The LTS (P388 Murine Leukemia [6]; 18 mg/kg/day iv days 1,4,7) was 0/14, the “T/C% (range)” value (P388 Murine Leukemia [6]; 27 mg/kg/day iv days 1,4,7) was 188% and 167% and the LTS (P388 Murine Leukemia [6]; 27 mg/kg/day iv days 1,4,7) was 0/17. The “T/C% (range)” value (P388 Murine Leukemia [6]; 40 mg/kg/day iv days 1,4,7) was 183% and 156%, the LTS (P388 Murine Leukemia [6]; 40 mg/kg/day iv days 1,4,7) was 0/16 and the “%T/C” value (L1210 murine leukemia [2]; Dose 50 mg/kg) was 151%.
For `NCCNc1ccc(NCCN)c2c1C(=O)c1ccncc1C2=O` [Compound 10i.HCl, 6,9-bis{[2-(amino)ethyl]amino}benzo[g]isoquinoline-5,10-dione], the IC50 [1] was 0.05 µg/mL, the “LTS (day 60)” value (P388 Murine Leukemia [7]; 3.1 mg/kg/day ip days 1,5,9) was 0/8 and the “% T/C (range)” value (P388 Murine Leukemia [7]; 3.1 mg/kg/day ip days 1,5,9) was 144%. For the same compound, the TOX (P388 Murine Leukemia [7]; 3.1 mg/kg/day ip days 1,5,9) was 0/8, the “LTS (day 60)” value (P388 Murine Leukemia [7]; 6.25 mg/kg/day ip days 1,5,9) was 0/8 and the “% T/C (range)” value (P388 Murine Leukemia [7]; 6.25 mg/kg/day ip days 1,5,9) was 196%. The TOX (P388 Murine Leukemia [7]; 6.25 mg/kg/day ip days 1,5,9) was 1/8, the “LTS (day 60)” value (P388 Murine Leukemia [7]; 12.5 mg/kg/day ip days 1,5,9) was 0/8 and the “% T/C (range)” value (P388 Murine Leukemia [7]; 12.5 mg/kg/day ip days 1,5,9) was 239%. The TOX (P388 Murine Leukemia [7]; 12.5 mg/kg/day ip days 1,5,9) was 0/8, the “LTS (day 60)” value (P388 Murine Leukemia [7]; 25 mg/kg/day ip days 1,5,9) was 2/8 and the “% T/C (range)” value (P388 Murine Leukemia [7]; 25 mg/kg/day ip days 1,5,9) was 367%. The TOX (P388 Murine Leukemia [7]; 25 mg/kg/day ip days 1,5,9) was 0/8, the “%T/C” value (L1210 murine leukemia [2]; Dose 12.5 mg/kg) was 265% and the LTS (L1210 murine leukemia [2]; Dose 12.5 mg/kg) was 4/6. For the same compound, the “%T/C” value (L1210 murine leukemia [2]; Dose 25 mg/kg) was 265%, the LTS (L1210 murine leukemia [2]; Dose 25 mg/kg) was 5/6 and the “%T/C” value (L1210 murine leukemia [8]; 6.25 mg/kg/day ip days 1,5,9) was 156%. The TOX (L1210 murine leukemia [8]; 6.25 mg/kg/day ip days 1,5,9) was 0/8, the LTS (L1210 murine leukemia [8]; 6.25 mg/kg/day ip days 1,5,9) was 0/8 and the “%T/C” value (L1210 murine leukemia [8]; 12.5 mg/kg/day ip days 1,5,9) was 175%. For the same compound, the TOX (L1210 murine leukemia [8]; 12.5 mg/kg/day ip days 1,5,9) was 0/8, the LTS (L1210 murine leukemia [8]; 12.5 mg/kg/day ip days 1,5,9) was 1/8 and the “%T/C” value (L1210 murine leukemia [8]; 25 mg/kg/day ip days 1,5,9, value calculated on dead mice) was 250* %. For the same compound, the TOX (L1210 murine leukemia [8]; 25 mg/kg/day ip days 1,5,9) was 1/7 and the LTS (L1210 murine leukemia [8]; 25 mg/kg/day ip days 1,5,9) was 4/7.
